Data set [1] in a line: Extraction of aqueous bioproduct solutions with 1-butene in a pressure vessel (distribution coefficient). The class given is physicochemical. The conditions noted are these: for DC (bioproduct distribution coefficient): 1-butene / aqueous phase, Table 1; for Extract Bioproduct conc. (%) / Raffinate Bioproduct conc. (%): 100 g aqueous solution, 2% initial bioproduct, mixed with 100 g 1-butene; for Extract Bioproduct conc. (%): extract phase; for Raffinate Bioproduct conc. (%): raffinate phase. As for the experimental part:
(§1) 100 g (grams) aqueous solutions of various bioproducts were prepared. Bioproduct initial concentration was 2%. Each of these bioproduct aqueous solutions was extracted in a pressure vessel by mixing with 100 g 1-butene (the olefin). The amount of formed extract and formed raffinate and the concentration (conc.) of the bioproduct in each were determined. Theses concentrations were used to calculate the bioproduct distribution coefficient (DC). Table 2 compares the found distribution coefficients to those of extracting with dimethyl ether (DME).

The nature of data set [2]: Extraction with dimethyl ether (DME), distribution coefficient for comparison. Type of data set: physicochemical. The conditions noted are these: extracting with dimethyl ether. As for the experimental part:
as §1

The conditions of data set [3]: 25° C.; cited from earlier work.

With `CCCC=O` [Butanal], in data set [1], the “DC (bioproduct distribution coefficient)” value came out at 6.96, the “Extract Bioproduct conc. (%)” value was 1.78% and the “Raffinate Bioproduct conc. (%)” value is given as 0.26%. The “Distribution coefficient DME” value in data set [2] came to 5.11.
In the case of `CCCC(C)=O` [Example 2-Pentanone, 2-Pentanone], in data set [1], the “DC (bioproduct distribution coefficient)” value is reported as 7.95, the “Extract Bioproduct conc. (%)” value is on record as 1.81% and the “Raffinate Bioproduct conc. (%)” value came to 0.23%. Besides, the “Distribution coefficient DME” value in data set [2] was 5.82.
For `O=Cc1ccco1` [Furfural], in data set [1], the “DC (bioproduct distribution coefficient)” value stood at 3.35, the “Extract Bioproduct conc. (%)” value was found to be 1.56% and the “Raffinate Bioproduct conc. (%)” value was 0.47%. In addition, the “Distribution coefficient DME” value in data set [2] was 3.79.
Consider `O=C1CCCO1` [Gamma Butyrolactone], for which, in data set [1], the “DC (bioproduct distribution coefficient)” value is listed as 3.69, the “Extract Bioproduct conc. (%)” value is reported as 1.60% and the “Raffinate Bioproduct conc. (%)” value is reported as 0.43%. The “Distribution coefficient DME” value in data set [2] worked out at 3.14.
The corresponding values for `O=C(O)CCCC(=O)O` [Glutaric Acid] are 0.27, 0.44%, 1.51% and 1.88.
`CCCC(=O)OC` [Methyl Butyrate]: in data set [1], the “DC (bioproduct distribution coefficient)” value is on record as 53.8, the “Extract Bioproduct conc. (%)” value was determined as 2.00% and the “Raffinate Bioproduct conc. (%)” value was 0.038%. Also, the “Distribution coefficient DME” value in data set [2] is on record as 20.73.
As for `CCC(=O)O` [Propionic Acid], in data set [1], the “DC (bioproduct distribution coefficient)” value was determined as 1.01, the “Extract Bioproduct conc. (%)” value is given as 1.00% and the “Raffinate Bioproduct conc. (%)” value was found to be 1.00%. Further, the “Distribution coefficient DME” value in data set [2] is recorded as 2.27.
As to `O=C(O)CCC(=O)O` [Succinic Acid], in data set [1], the “DC (bioproduct distribution coefficient)” value was 0.11, the “Extract Bioproduct conc. (%)” value amounted to 0.158% and the “Raffinate Bioproduct conc. (%)” value was 1.77%. Moreover, the “Distribution coefficient DME” value in data set [2] turned out to be 1.01.
For `CCCCO` [n-butanol], the “n-butanol content of saturated aqueous solution” value in data set [3] was “about 7.3 wt %”.

The values are drawn from patent US10612051B2, “Method of producing bioproducts” (White Dog Labs, Inc., priority 2015, dated 2020).
